Data taken from patent publication US20230181601A1, “TREATMENT OF NON-ALCOHOLIC STEATOHEPATITIS (NASH)” (DURECT CORPORATION, priority 2020, published 2023).

Assay: Single oral dose safety and pharmacokinetic study in NASH and healthy subjects
Assay type: in vivo, human
Procedure: The present Example was a randomized, dose ranging, single dose safety and pharmacokinetic study of 25HC3S administered to subjects with NASH and control healthy subjects. […] For each cohort, 10 subjects with NASH were enrolled which were further classified into cirrhotic and non-cirrhotic. Each subject received only one dose of study treatment. The second cohort was dosed after a review of safety and tolerability data from Cohort 1.

[1] = 50 mg single oral dose, Healthy, Geometric Mean
[2] = 50 mg single oral dose, Healthy, Mean
[3] = 50 mg single oral dose, NASH, Geometric Mean
[4] = 50 mg single oral dose, NASH, Mean
[5] = 200 mg single oral dose, Healthy, Geometric Mean
[6] = 200 mg single oral dose, Healthy, Mean
[7] = 200 mg single oral dose, NASH, Geometric Mean
[8] = 200 mg single oral dose, NASH, Mean

## C[C@H](CCCC(C)(C)O)[C@H]1CC[C@H]2[C@@H]3CC=C4C[C@@H](OS(=O)(=O)[O-])CC[C@]4(C)[C@H]3CC[C@]12C.[Na+] [25HC3S sodium]
[1]
  AUC0-12: 496.7 ng·h/mL
  AUC0-last: 450.0 ng·h/mL
  AUCinf: 423.3 ng·h/mL
  CL/F: 118.11 L/h
  Cmax: 90.946 ng/mL
  T1/2: 1.889 h
  Tmax: 2.834 h
[2]
  AUC0-12: 528.0 ng·h/mL
  AUC0-last: 477.1 ng·h/mL
  AUCinf: 438.6 ng·h/mL
  CL/F: 122.35 L/h
  Cmax: 93.967 ng/mL
  T1/2: 1.906 h
  Tmax: 3.008 h
[3]
  AUC0-12: 597.8 ng·h/mL
  AUC0-last: 476.1 ng·h/mL
  AUCinf: 608.3 ng·h/mL
  CL/F: 82.19 L/h
  Cmax: 107.627 ng/mL
  T1/2: 1.670 h
  Tmax: 2.305 h
[4]
  AUC0-12: 623.1 ng·h/mL
  AUC0-last: 513.3 ng·h/mL
  AUCinf: 636.1 ng·h/mL
  CL/F: 85.29 L/h
  Cmax: 113.170 ng/mL
  T1/2: 1.674 h
  Tmax: 2.408 h
[5]
  AUC0-12: 1162.8 ng·h/mL
  AUC0-last: 1172.5 ng·h/mL
  AUCinf: 1181.2 ng·h/mL
  CL/F: 169.32 L/h
  Cmax: 255.698 ng/mL
  T1/2: 1.719 h
  Tmax: 2.528 h
[6]
  AUC0-12: 1175.9 ng·h/mL
  AUC0-last: 1185.7 ng·h/mL
  AUCinf: 1194.3 ng·h/mL
  CL/F: 171.25 L/h
  Cmax: 260.500 ng/mL
  T1/2: 1.753 h
  Tmax: 2.673 h
[7]
  AUC0-12: 1495.2 ng·h/mL
  AUC0-last: 1539.2 ng·h/mL
  AUCinf: 1411.8 ng·h/mL
  CL/F: 141.66 L/h
  Cmax: 318.582 ng/mL
  T1/2: 2.196 h
  Tmax: 2.647 h
[8]
  AUC0-12: 1541.0 ng·h/mL
  AUC0-last: 1581.6 ng·h/mL
  AUCinf: 1428.5 ng·h/mL
  CL/F: 143.19 L/h
  Cmax: 332.700 ng/mL
  T1/2: 2.511 h
  Tmax: 2.906 h
